Experimental data as given in patent EP1769804B1, “hPTH(1-34) for use in preventing or reducing the incidence or severity of vertebral and / or non vertebral fracture in a male human” (priority 1998, dated 2012).
Marks after values point to notes of the source that are not given here.

How the values were obtained:
[1] = test system: L-5 vertebra from cynomolgus monkeys; test: QCT and 3D finite element modeling of L-5 vertebra; format: in vivo; details: for low BMD, percentage of L5 vertebral volume: 0-300 mg/cc; for low BMD, percentage of L5 vertebral volume / medium BMD, percentage of L5 vertebral volume / high BMD, percentage of L5 vertebral volume / cortical BMD, percentage of L5 vertebral volume: mean±SEM; for medium BMD, percentage of L5 vertebral volume: 300-700 mg/cc; for high BMD, percentage of L5 vertebral volume: 700-1000 mg/cc; for cortical BMD, percentage of L5 vertebral volume: >1000 mg/cc; for vertebral effective strain: finite element model, distributed load of 100 N
Method: These studies determined 3D finite element modeling data on vertebra from monkeys of the study dosed with PTH for 18 months. Excised L-5 vertebra in 50% ethanol/saline from the ovariectomized (n=7) and PTH (n=7) groups were serially scanned in 500 µm steps by quantitative computed tomography (QCT, Norland, Ft. Atkinson, WI), using 70x70 µm pixels. Each of the 500 µm cross-sections was analyzed for volumetric bone mineral density (BMD, mg/cc), bone mineral content (BMC, mg), cross-sectional area (X-Area), cancellous bone volume (BV/TV), trabecular thickness (Tb.Th), and connectivity (node density, strut analysis). Pixels in each serial scan were averaged to create 490x490x500 µm voxels. The serial scans were then stacked and a triangular surface mesh generated for each bone using the "marching cubes" algorithm (see e.g. Lorensen and Cline 1987 "Marching cubes, a high resolution 3D surface construction algorithm." Computer Graphics 21, 163-169). A smoothed version of each surface mesh was then used to generate a tetrahedral mesh for 3D finite-element modeling.
Young's modulus for each tetrahedral element was derived from the original voxel densities and material properties from a beam of cortical bone milled from the femoral diaphysis of the monkeys. Each tetrahedral mesh was rotated so that the bottom surface of each vertebra was aligned with a plane. Linear elastic stress analysis was then performed for each L-5 model in which a distributed load of 100 N was applied to the top surface of the centrum, perpendicular to the bottom plane while the bottom surface was fixed in the direction of loading. The resulting axial strain contours were evaluated, as were the BMD distributions, and compared between PTH and ovariectomized. At this resolution, the density of each voxel is dependent on the extent to which each voxel is filled with bone as opposed to soft tissue.

Ovariectomized Primates = test: Cortical histomorphometry of the humerus midshaft; format: in vivo, Macaca fascicularis; details: mean ± SEM
Text: Biomechanical tests were done on lumbar vertebrae L-3 to L-4, the femur neck, humerus midshaft, and on a cortical bone specimen machined from the femur diaphysis (measures defined in Table 2). Conventional static and dynamic histomorphometry were done (measures described in Table 6) on the humerus midshaft, lumbar vertebra L-2, femoral neck, femur midshaft, the radius midshaft and distal radius. Initial statistical analyses compared all groups to vehicle-treated ovariectomized controls. The data is suitable for additional exploratory analyses to examine dose dependency, effects of withdrawal, interactions between outcomes, and changes in time by methods known to those of skill in the art. All assays were conducted and determined by methods known in the art.
For certain experimental subjects, cortical bone of the humerus was examined by histomorphometry and by polarized Fourier transform infrared microscopy. The Fourier transform infrared microscopy was conducted by an adaptation of known methods for such microscopy.

[2] = PTH-W, after withdrawal of PTH for 6 months
[3] = PTH for 18 months compared to ovariectomized
[4] = PTH1-W: withdrawal after 1 µg/kg for 12 months

In the case of teriparatide [rhPTH(1-34)], the “low BMD, percentage of L5 vertebral volume” value ([1]; PTH for 18 months) is reported as 17.7±1.6 %, the “low BMD, percentage of L5 vertebral volume” value [1, 2] is reported as 22.4±1.3 % and the “medium BMD, percentage of L5 vertebral volume” value ([1]; PTH for 18 months) is reported as 58.9±1.9 %. The “medium BMD, percentage of L5 vertebral volume” value [1, 2] was 49.7±1.2%, the “high BMD, percentage of L5 vertebral volume” value ([1]; PTH for 18 months) was 22.8±2.7% and the “high BMD, percentage of L5 vertebral volume” value [1, 2] was 27.0±1.6 %. The “cortical BMD, percentage of L5 vertebral volume” value ([1]; PTH for 18 months) was 0.6±0.3%, the “cortical BMD, percentage of L5 vertebral volume” value [1, 2] was 0.8±0.2% and the “BMC at the midlevel of the L5 vertebra” value ([1]; PTH for 18 months) was 47.4 ± 1.5 mg. For the same substance, the “greater Tb.N, centrum” value [1, 3] was 37%, the “greater node density (node/tissue volume)” value [1, 3] was 140% and the greater node-to-node struts [1, 3] was 286%. For the same substance, the “increase in BMC, middle 500 µm slice of L-5” value [1, 3] was 27%, the “increase in BMD, middle 500 µm slice of L-5” value [1, 3] was 21% and the “increase in BV/TV, centrum” value [1, 3] was 73%. The “increase in Tb.Th, centrum” value [1, 3] was 30%, the “reduction of average mechanical strain in the vertebra” value ([1]; PTH treatment, vs OVX) was 36% and the “BMC at the midlevel of the L5 vertebra” value [1, 2] was 44.2 ± 1.2 mg. For the same substance, the “average mechanical strain in the vertebra below OVX” value ([1]; after withdrawal of PTH) was 23%, the vertebral effective strain ([1]; PTH for 18 months) was 447±36 ustrain and the vertebral effective strain [1, 2] was 539±34 ustrain. For the same substance, the “Ac.F (Activation frequency)” value (Ovariectomized Primates; [4]) was 3.05 ± 2.15^a cycles/year, the “B.Ar (Bone area, the total area within the periosteal surface)” value (Ovariectomized Primates; [4]) was 54.94 ± 6.55 mm^2 and the “BFR/BS.Ec (bone formation rate, endocortical surface referent)” value (Ovariectomized Primates; [4]) was 14.89 ± 10.32 µm/day. The “BFR/BS.Ps (Bone formation rate, periosteal surface referent)” value (Ovariectomized Primates; [4]) was 3.60 ± 3.84^a µm/day, the “BFR/BV (Bone formation rate, bone volume referent)” value (Ovariectomized Primates; [4]) was 4.39 ± 3.48^a %/year and the “Ct.Ar (Cortical area)” value (Ovariectomized Primates; [4]) was 38.10 ± 4.83 mm^2. For the same substance, the “FP (Formation period)” value (Ovariectomized Primates; [4]) was 64.94 ± 11.99 days, the “L.On.N/Ct.A (Number of fluorochrome labeled osteons per unit cortical area)” value (Ovariectomized Primates; [4]) was 0.50 ± 0.36^a #/mm^2 and the “MAR (Mineral apposition rate, intracortical)” value (Ovariectomized Primates; [4]) was 1.06 ± 0.27 µm/day. For the same substance, the “MAR.Ec (Mineral apposition rate, endocortical surface)” value (Ovariectomized Primates; [4]) was 0.66 ± 0.16 µm/day, the “MAR.Ps (mineral apposition rate, periosteal surface)” value (Ovariectomized Primates; [4]) was 0.54 ± 0.15^a µm/day and the “MS/BS.Ec (mineralizing endocortical surface normalized to total endocortical surface)” value (Ovariectomized Primates; [4]) was 11.74 ± 14.41^a %. The “MS/BS.Ps (Mineralizing periosteal surface normalized to total periosteal surface)” value (Ovariectomized Primates; [4]) was 3.86 ± 4.83^a %, the “Me.Ar (Medullary cavity area)” value (Ovariectomized Primates; [4]) was 16.84 ± 3.74 mm^2 and the “O.Wi (Osteoid width)” value (Ovariectomized Primates; [4]) was 3.96 ± 0.83 µm. The “Po (Porosity, the percentage of bone area occupied by spaces)” value (Ovariectomized Primates; [4]) was 2.23 ± 1.60%, the “Rs.N/Ct.A (number of resorption spaces per unit cortical area)” value (Ovariectomized Primates; [4]) was 0.12 ± 0.07^a #/mm^2 and the “W.Wi (Osteonal wall width)” value (Ovariectomized Primates; [4]) was 63.12 ± 17.35 µm. For the same substance, the “omt (Osteoid maturation time)” value (Ovariectomized Primates; [4]) was 3.86 ± 0.74 days, the “Ac.F (Activation frequency)” value (Ovariectomized Primates; PTH1: 1 µg/kg for 18 months) was 7.69 ± 4.96 cycles/year and the “B.Ar (Bone area, the total area within the periosteal surface)” value (Ovariectomized Primates; PTH1: 1 µg/kg for 18 months) was 54.22 ± 5.97 mm^2. For the same substance, the “BFR/BS.Ec (bone formation rate, endocortical surface referent)” value (Ovariectomized Primates; PTH1: 1 µg/kg for 18 months) was 18.14 ± 13.95 µm/day, the “BFR/BS.Ps (Bone formation rate, periosteal surface referent)” value (Ovariectomized Primates; PTH1: 1 µg/kg for 18 months) was 8.53 ± 10.54 µm/day and the “BFR/BV (Bone formation rate, bone volume referent)” value (Ovariectomized Primates; PTH1: 1 µg/kg for 18 months) was 19.23 ± 5.93 %/year. For the same substance, the “Ct.Ar (Cortical area)” value (Ovariectomized Primates; PTH1: 1 µg/kg for 18 months) was 37.61 ± 3.86 mm^2, the “FP (Formation period)” value (Ovariectomized Primates; PTH1: 1 µg/kg for 18 months) was 63.44 ± 10.02 days and the “L.On.N/Ct.A (Number of fluorochrome labeled osteons per unit cortical area)” value (Ovariectomized Primates; PTH1: 1 µg/kg for 18 months) was 1.26 ± 0.71 #/mm^2. The “MAR (Mineral apposition rate, intracortical)” value (Ovariectomized Primates; PTH1: 1 µg/kg for 18 months) was 0.98 ± 0.12^a µm/day, the “MAR.Ec (Mineral apposition rate, endocortical surface)” value (Ovariectomized Primates; PTH1: 1 µg/kg for 18 months) was 0.66 ± 0.15 µm/day and the “MAR.Ps (mineral apposition rate, periosteal surface)” value (Ovariectomized Primates; PTH1: 1 µg/kg for 18 months) was 0.89 ± 0.95 µm/day. For the same substance, the “MS/BS.Ec (mineralizing endocortical surface normalized to total endocortical surface)” value (Ovariectomized Primates; PTH1: 1 µg/kg for 18 months) was 25.19 ± 17.14%, the “MS/BS.Ps (Mineralizing periosteal surface normalized to total periosteal surface)” value (Ovariectomized Primates; PTH1: 1 µg/kg for 18 months) was 8.59 ± 5.73% and the “Me.Ar (Medullary cavity area)” value (Ovariectomized Primates; PTH1: 1 µg/kg for 18 months) was 16.61 ± 3.77 mm^2. The “O.Wi (Osteoid width)” value (Ovariectomized Primates; PTH1: 1 µg/kg for 18 months) was 3.66 ± 0.67 µm, the “Po (Porosity, the percentage of bone area occupied by spaces)” value (Ovariectomized Primates; PTH1: 1 µg/kg for 18 months) was 4.65 ± 4.78% and the “Rs.N/Ct.A (number of resorption spaces per unit cortical area)” value (Ovariectomized Primates; PTH1: 1 µg/kg for 18 months) was 0.28 ± 0.18 #/mm^2.
